No end group written: not given here.
Experiments:
[1] = system: A. baumannii ATCC 19606; assay type: cell-based, Acinetobacter baumannii; details: ATCC 19606, 24 h
Excerpt: In this study, we used the following pathogenic bacterial strains: A. baumannii ATCC 19606, E. coli ATCC 11775, E. coli AIC221 [E. coli MG1655 phnE_2::FRT (control strain for AIC 222)], E. coli AIC222 [E. coli MG1655 pmrA53 phnE_2::FRT (polymyxin resistant; colistin-resistant strain)], K. pneumoniae ATCC 13883, P. aeruginosa PAO1, P. aeruginosa PA14, Staphylococcus aureus ATCC 12600, S. aureus ATCC BAA-1556 (methicillin-resistant strain), Enterococcus faecalis ATCC 700802 (vancomycin-resistant strain), and Enterococcus faecium ATCC 700221 (vancomycin-resistant strain). Pseudomonas Isolation (P. aeruginosa strains) agar plates were exclusively used in the case of Pseudomonas species. All the other pathogens were grown in Luria–Bertani (LB) broth and on LB agar. In all the experiments, bacteria were inoculated from one-isolated colony and grown overnight (16 h) in a liquid medium at 37 °C. On the following day, inoculums were diluted 1:100 in fresh media and incubated at 37 °C to mid-logarithmic phase.
Broth microdilution assays were conducted to establish the MIC for each peptide[53]–[55]. Peptides were added to untreated polystyrene 96-well microtitre plates and serially diluted twofold in sterile water, ranging from 0 to 64 μmol l^−1. A bacterial inoculum at a concentration of 10^6 CFU ml^−1 in LB medium was then mixed in a 1:1 ratio with the peptide solution. […] Each assay was performed in three independent replicates.

[2] = system: A. baumannii ATCC 19606; assay: Cytoplasmic membrane depolarization assay (DiSC3-5); assay type: cell-based, Acinetobacter baumannii; details: A. baumannii ATCC 19606, peptides at their MIC, 60 min; compared with polymyxin B and levofloxacin
Protocol: The cytoplasmic membrane depolarization assay was performed using the membrane-potential-sensitive dye DiSC3-5. A. baumannii ATCC 19606 in the mid-logarithmic phase were washed and resuspended at 0.05 OD ml^−1 (optical value at 600 nm) in HEPES buffer (pH 7.2) containing 20 mmol l^−1 of glucose and 0.1 mol l^−1 of KCl. DiSC3-5 (20 μmol l^−1) was added to the bacterial suspension (100 μl per well) for 15 min to stabilize the fluorescence, which indicates the incorporation of the dye into the bacterial membrane, and then the peptides were mixed 1:1 with the bacteria to a final concentration corresponding to their MIC values. Membrane depolarization was then followed by reading changes in the fluorescence (λex = 622 nm, λem = 670 nm) over time for 60 min. The relative fluorescence was calculated using the untreated control (buffer + bacteria + fluorescent dye) and polymyxin B (positive control) as baselines and the following equation was applied to reflect the percentage of difference between the baselines and the sample: Percentagedifference=100×(fluorescencesample−fluorescenceuntreatedcontrol)/fluorescenceuntreatedcontrol.

[3] = system: human embryonic kidney (HEK293T) cells; assay: Cytotoxicity assay (MTT); assay type: cell-based; details: 24 h exposure, concentration range tested 4–64 μmol l^−1 (method: 8–128 μmol l^−1), three biological replicates
Protocol: One day before the experiment, an aliquot of 100 μl of the cells at 50,000 cells ml^−1 was seeded into each well of the cell-treated 96-well plates used in the experiment. The attached HEK293T cells were then exposed to increasing concentrations of the peptides (8–128 μmol l^−1) for 24 h. After the incubation period, we performed the 3-(4,5-dimethylthiazol-2-yl)-2,5-diphenyltetrazolium bromide tetrazolium reduction assay (MTT assay)[55]. The MTT reagent was dissolved at 0.5 mg ml^−1 in the medium without phenol red and was used to replace cell culture supernatants containing the peptides (100 μl per well). The samples were incubated for 4 h at 37 °C in a humidified atmosphere containing 5% CO2, yielding the insoluble formazan salt. The resulting salts were then resuspended in hydrochloric acid (0.04 mol l^−1) in anhydrous isopropanol and quantified by spectrophotometric measurements of absorbance at 570 nm. All assays were done as three biological replicates.

## KRKRGLKLATALSLNNKF [Mylodonin-2]
[1]
  MIC, A. baumannii ATCC 19606: 64 µM

## IASLHARSIARLLKRWINVHQGLGLKW [Mammuthusin-2-7]
[2]
  cytoplasmic membrane depolarization (DiSC3-5 fluorescence): highest depolarization activity within its family

## KTLKIIRLLF [Mammuthusin-3]
[1]
  MIC, A. baumannii ATCC 19606: 32 µM

## HKIKINTIKLKIKLKI [Lophiosin-1-3]
[2]
  cytoplasmic membrane depolarization (DiSC3-5 fluorescence): effective depolarizers

## LRIKNHWIHFRVLAKALW [Hesperelin-3-9]
[3]
  cytotoxicity against HEK293T cells: generally non-toxic, except for hesperelin-3-9

## RNLVRWVAGLKLKKKVIKIKVGIGRWANIK [Hydrodamin-3-9]
[1]
  MIC, A. baumannii ATCC 19606: 8 µM

Reference: publication PMC13201158, “A generative artificial intelligence approach for peptide antibiotic optimization” (Nature Machine Intelligence, 2026)
